Data from patent US6737383B1, “Herbicidal oxadiazolidines” (priority 1999, dated 2004).

How the values were obtained:
[1] = system: bedstraw; assay: Test B pre/postemergence bedstraw; format: in vivo, Galium aparine
Outline: (§1)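 Herbicidal effect was estimated by eye on a ten-point control scale after plants spent twelve to sixteen days in a greenhouse following soil or foliar treatment. Foliar sprays targeted plants at one to four leaves; all doses were formulated in a non-phytotoxic solvent with surfactant.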

[2] = system: blackgrass; assay: Test B pre/postemergence blackgrass; format: in vivo, Alopecurus myosuroides
Outline: as §1

[3] = system: surinam grass; assay: Test B pre/postemergence surinam grass; format: in vivo, Brachiaria decumbens
Outline: as §1

[4] = system: cocklebur; assay: Test B pre/postemergence cocklebur; format: in vivo, Xanthium strumarium
Outline: as §1

[5] = system: corn; assay: Test B pre/postemergence corn; format: in vivo, Zea mays
Outline: as §1

[6] = system: crabgrass; assay: Test B pre/postemergence crabgrass; format: in vivo, Digitaria sanguinalis
Outline: as §1

[7] = system: giant foxtail; assay: Test B pre/postemergence giant foxtail; format: in vivo, Setaria faberii
Outline: as §1

[8] = system: morningglory; assay: Test B pre/postemergence morningglory; format: in vivo, Ipomoea hederacea
Outline: as §1

[9] = system: pigweed; assay: Test B pre/postemergence pigweed; format: in vivo, Amaranthus retroflexus
Outline: as §1

[10] = system: rape; assay: Test B pre/postemergence rape; format: in vivo, Brassica napus
Outline: as §1

[11] = system: soybean; assay: Test B pre/postemergence soybean; format: in vivo, Glycine max
Outline: as §1

[12] = system: sugar beet; assay: Test B pre/postemergence sugar beet; format: in vivo, Beta vulgaris
Outline: as §1

[13] = system: velvetleaf; assay: Test B pre/postemergence velvetleaf; format: in vivo, Abutilon theophrasti
Outline: as §1

[14] = system: wheat; assay: Test B pre/postemergence wheat; format: in vivo, Triticum aestivum
Outline: as §1

[15] = system: wild oat; assay: Test B pre/postemergence wild oat; format: in vivo, Avena fatua
Outline: as §1

[16] = system: purple nutsedge; assay: Test B pre/postemergence purple nutsedge; format: in vivo, Cyperus rotundus
Outline: as §1

[17] = system: rice; assay: Test B flood test rice; format: in vivo, Oryza sativa
Outline: (§2)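 Flood test on plants grown to the 2-leaf stage; treated plants kept in greenhouse twelve to sixteen days, then visually rated against controls on a 0 (no effect) to 10 (complete control) scale.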

[18] = system: smallflower flatsedge; assay: Test B flood test smallflower flatsedge; format: in vivo, Cyperus difformis
Outline: as §2

[19] = system: duck salad; assay: Test B flood test duck salad; format: in vivo, Heteranthera limosa
Outline: as §2

[20] = system: bamyardgrass; assay: Test B flood test barnyardgrass; format: in vivo, Echinochloa crus-galli
Outline: as §2

[21] = Postemergence, Rate 125 g/ha, scale of 0 to 10 where 0 is no effect and 10 is complete control
[22] = Rate 250 g/ha, Postemergence, scale 0 to 10, 0 is no effect, 10 is complete control
[23] = Rate 500 g/ha, Postemergence, scale 0 to 10, 0 is no effect, 10 is complete control
[24] = Postemergence, Rate 1000 g/ha, scale 0 to 10 (0 no effect, 10 complete control)
[25] = Preemergence, Rate 125 g/ha, scale of 0 to 10 where 0 is no effect and 10 is complete control
[26] = Preemergence, Rate 250 g/ha, scale 0 to 10 (0 no effect, 10 complete control)
[27] = Preemergence, Rate 500 g/ha, scale of 0 to 10 where 0 is no effect and 10 is complete control
[28] = Rate 1000 g/ha, Preemergence, scale 0 to 10 (0 no effect, 10 complete control)
[29] = Pre-emergence, Rate 1000 g/ha, scale 0 to 10 (0 no effect, 10 complete control)
[30] = Rate 125 g/ha, under heading Pre-emergence, flood test species, visual evaluation after twelve to sixteen days
[31] = Rate 250 g/ha, Pre-emergence (flood test species), scale 0 to 10, 0 is no effect, 10 is complete control
[32] = Rate 500 g/ha, Pre-emergence section of Table B, 0 to 10 scale (0 no effect, 10 complete control)
[33] = Preemergence, Rate 62 g/ha, scale of 0 to 10 where 0 is no effect and 10 is complete control
[34] = Preemergence, Rate 250 g/ha, scale 0 (no effect) to 10 (complete control)
[35] = Pre-emergence, Rate 62 g/ha, scale 0 to 10, 0 is no effect, 10 is complete control
[36] = Rate 125 g/ha, Pre-emergence section (flood test species), scale 0 to 10, 0 no effect, 10 complete control

COC(=O)C(CCO)n1c(=O)on(C(=O)N(c2ccc(F)cc2)C(C)C)c1=O (stereo not shown) [Compound 680]
Bedstraw plant response rating [1, 21]: 0
Bedstraw plant response rating [1, 22]: 0
Bedstraw plant response rating [1, 23]: 0
Blackgrass plant response rating [2, 21]: 0
Blackgrass plant response rating [2, 24]: 3
Plant response rating, Blackgrass [2, 25]: 0
Plant response rating, Blackgrass [2, 26]: 0
Plant response rating, Blackgrass [2, 27]: 4
Blackgrass plant response rating [2, 22]: 0
Blackgrass plant response rating [2, 23]: 1
Plant response rating, Blackgrass [2, 28]: 4
B. signalgrass plant response rating [3, 21]: 0
B. signalgrass plant response rating [3, 24]: 3
Plant response rating, B. signalgrass [3, 25]: 0
Plant response rating, B. signalgrass [3, 26]: 0
Plant response rating, B. signalgrass [3, 27]: 0
B. signalgrass plant response rating [3, 22]: 0
B. signalgrass plant response rating [3, 23]: 0
Plant response rating, B. signalgrass [3, 28]: 0
Cocklebur plant response rating [4, 21]: 0
Cocklebur plant response rating [4, 24]: 0
Plant response rating, Cocklebur [4, 25]: 0
Plant response rating, Cocklebur [4, 26]: 0
Plant response rating, Cocklebur [4, 27]: 0
Cocklebur plant response rating [4, 22]: 0
Cocklebur plant response rating [4, 23]: 0
Plant response rating, Cocklebur [4, 28]: 0
Corn plant response rating [5, 21]: 0
Corn plant response rating [5, 24]: 1
Plant response rating, Corn [5, 25]: 0
Plant response rating, Corn [5, 26]: 0
Plant response rating, Corn [5, 27]: 0
Corn plant response rating [5, 22]: 0
Corn plant response rating [5, 23]: 0
Plant response rating, Corn [5, 28]: 0
Crabgrass plant response rating [6, 21]: 0
Crabgrass plant response rating [6, 24]: 9
Plant response rating, Crabgrass [6, 25]: 0
Plant response rating, Crabgrass [6, 26]: 3
Plant response rating, Crabgrass [6, 27]: 3
Crabgrass plant response rating [6, 22]: 1
Crabgrass plant response rating [6, 23]: 3
Plant response rating, Crabgrass [6, 28]: 3
Giant foxtail plant response rating [7, 21]: 0
Giant foxtail plant response rating [7, 24]: 8
Plant response rating, Giant foxtail [7, 25]: 0
Plant response rating, Giant foxtail [7, 27]: 4
Giant foxtail plant response rating [7, 22]: 0
Giant foxtail plant response rating [7, 23]: 5
Plant response rating, Giant foxtail [7, 28]: 7
Morningglory plant response rating [8, 21]: 1
Morningglory plant response rating [8, 24]: 7
Plant response rating, Morningglory [8, 25]: 0
Plant response rating, Morningglory [8, 27]: 0
Morningglory plant response rating [8, 22]: 1
Morningglory plant response rating [8, 23]: 1
Plant response rating, Morningglory [8, 28]: 0
Redroot pigweed plant response rating [9, 21]: 0
Redroot pigweed plant response rating [9, 24]: 5
Plant response rating, Redroot pigweed [9, 25]: 0
Plant response rating, Redroot pigweed [9, 27]: 3
Redroot pigweed plant response rating [9, 22]: 0
Redroot pigweed plant response rating [9, 23]: 0
Plant response rating, Redroot pigweed [9, 28]: 7
Rape plant response rating [10, 21]: 0
Rape plant response rating [10, 24]: 0
Plant response rating, Rape [10, 25]: 0
Plant response rating, Rape [10, 27]: 0
Rape plant response rating [10, 22]: 0
Rape plant response rating [10, 23]: 0
Plant response rating, Rape [10, 28]: 0
Soybean plant response rating [11, 21]: 0
Plant response rating, Soybean [11, 25]: 0
Plant response rating, Soybean [11, 27]: 0
Soybean plant response rating [11, 22]: 0
Soybean plant response rating [11, 23]: 3
Plant response rating, Soybean [11, 28]: 0
Sugarbeets plant response rating [12, 21]: 0
Plant response rating, Sugarbeets [12, 25]: 0
Plant response rating, Sugarbeets [12, 27]: 0
Sugarbeets plant response rating [12, 22]: 0
Sugarbeets plant response rating [12, 23]: 0
Plant response rating, Sugarbeets [12, 28]: 0
Velvetleaf plant response rating [13, 21]: 0
Plant response rating, Velvetleaf [13, 25]: 0
Plant response rating, Velvetleaf [13, 27]: 0
Velvetleaf plant response rating [13, 22]: 0
Velvetleaf plant response rating [13, 23]: 0
Plant response rating, Velvetleaf [13, 28]: 4
Wheat plant response rating [14, 21]: 0
Plant response rating, Wheat [14, 25]: 0
Plant response rating, Wheat [14, 27]: 0
Wheat plant response rating [14, 22]: 0
Wheat plant response rating [14, 23]: 0
Plant response rating, Wheat [14, 28]: 0
Wild oats plant response rating [15, 21]: 0
Plant response rating, Wild oats [15, 25]: 0
Plant response rating, Wild oats [15, 27]: 0
Wild oats plant response rating [15, 22]: 0
Wild oats plant response rating [15, 23]: 0
Plant response rating, Wild oats [15, 28]: 2
Nutsedge plant response rating [16, 21]: 0
Plant response rating, Nutsedge [16, 25]: 0
Plant response rating, Nutsedge [16, 27]: 0
Nutsedge plant response rating [16, 22]: 0
Nutsedge plant response rating [16, 23]: 0
Plant response rating, Nutsedge [16, 28]: 0
Rice plant response rating [17, 29]: 0
Rice plant response rating (0 to 10 scale, 0 is no effect, 10 is complete control) [17, 30]: 0
Rice plant response rating [17, 31]: 0
Rice plant response rating [17, 32]: 0
S. Flatsedge plant response rating [18, 29]: 0
S. Flatsedge plant response rating (0 to 10 scale, 0 is no effect, 10 is complete control) [18, 30]: 0
S. Flatsedge plant response rating [18, 31]: 0
S. Flatsedge plant response rating [18, 32]: 0
Ducksalad plant response rating [19, 29]: 0
Ducksalad plant response rating (0 to 10 scale, 0 is no effect, 10 is complete control) [19, 30]: 0
Ducksalad plant response rating [19, 31]: 0
Ducksalad plant response rating [19, 32]: 0
Barnyardgrass plant response rating [20, 29]: 0
Barnyardgrass plant response rating (0 to 10 scale, 0 is no effect, 10 is complete control) [20, 30]: 0
Barnyardgrass plant response rating [20, 31]: 0
Barnyardgrass plant response rating [20, 32]: 0

CC(C)N(C(=O)n1oc(=O)n(CC2CCCCO2)c1=O)c1ccc(F)cc1F (stereo not shown) [Compound 715]
Bedstraw plant response rating [1, 33]: 0
Plant response rating, Bedstraw [1, 25]: 0
Bedstraw plant response rating [1, 34]: 0
Blackgrass plant response rating [2, 33]: 9
Plant response rating, Blackgrass [2, 25]: 9
Blackgrass plant response rating [2, 34]: 9
Plant response rating, Blackgrass [2, 27]: 10
B. signalgrass plant response rating [3, 33]: 8
Plant response rating, B. signalgrass [3, 25]: 8
B. signalgrass plant response rating [3, 34]: 9
Plant response rating, B. signalgrass [3, 27]: 10
Cocklebur plant response rating [4, 33]: 0
Plant response rating, Cocklebur [4, 25]: 0
Cocklebur plant response rating [4, 34]: 0
Plant response rating, Cocklebur [4, 27]: 0
Corn plant response rating [5, 33]: 0
Plant response rating, Corn [5, 25]: 0
Corn plant response rating [5, 34]: 2
Crabgrass plant response rating [6, 33]: 9
Plant response rating, Crabgrass [6, 25]: 9
Crabgrass plant response rating [6, 34]: 10
Giant foxtail plant response rating [7, 33]: 10
Plant response rating, Giant foxtail [7, 25]: 10
Giant foxtail plant response rating [7, 34]: 10
Morningglory plant response rating [8, 33]: 0
Plant response rating, Morningglory [8, 25]: 1
Morningglory plant response rating [8, 34]: 2
Redroot pigweed plant response rating [9, 33]: 8
Plant response rating, Redroot pigweed [9, 25]: 9
Redroot pigweed plant response rating [9, 34]: 10
Rape plant response rating [10, 33]: 2
Plant response rating, Rape [10, 25]: 8
Rape plant response rating [10, 34]: 8
Soybean plant response rating [11, 33]: 0
Plant response rating, Soybean [11, 25]: 0
Soybean plant response rating [11, 34]: 0
Sugarbeets plant response rating [12, 33]: 4
Plant response rating, Sugarbeets [12, 25]: 5
Sugarbeets plant response rating [12, 34]: 7
Velvetleaf plant response rating [13, 33]: 0
Plant response rating, Velvetleaf [13, 25]: 5
Velvetleaf plant response rating [13, 34]: 6
Wheat plant response rating [14, 33]: 0
Plant response rating, Wheat [14, 25]: 0
Wheat plant response rating [14, 34]: 3
Wild oats plant response rating [15, 33]: 9
Plant response rating, Wild oats [15, 25]: 9
Wild oats plant response rating [15, 34]: 9
Nutsedge plant response rating [16, 33]: 0
Plant response rating, Nutsedge [16, 25]: 0
Nutsedge plant response rating [16, 34]: 0
Rice plant response rating [17, 35]: 0
Rice plant response rating [17, 36]: 0
Rice plant response rating [17, 31]: 0
Rice plant response rating [17, 32]: 0
S. Flatsedge plant response rating [18, 35]: 0
S. Flatsedge plant response rating [18, 36]: 0
S. Flatsedge plant response rating [18, 31]: 0
S. Flatsedge plant response rating [18, 32]: 0
Ducksalad plant response rating [19, 35]: 0
Ducksalad plant response rating [19, 36]: 0
Ducksalad plant response rating [19, 31]: 0
Ducksalad plant response rating [19, 32]: 0
Barnyardgrass plant response rating [20, 35]: 0
Barnyardgrass plant response rating [20, 36]: 0
Barnyardgrass plant response rating [20, 31]: 0
Barnyardgrass plant response rating [20, 32]: 0
